Reference: US8435978B2, “Substituted sulfonamide compounds” (Gruenenthal GmbH, priority 2006, dated 2013)

Legend:
B1R receptor of the rat = biological target: T1, B1R receptor of the rat (Rattus norvegicus, UniProt P97583); test: Functional study on the bradykinin receptor 1 (B1R), FLIPR Ca2+ assay, rB1R cells; assay type: cell-based; conditions: agonist Des-Arg9-bradykinin 100 nM, % inhibition compared with the maximum achievable inhibition; for B1R Antagonism, rat [10 μM] % Inhibition: test substance 10 μM, rB1R CHO K1 cells; for inhibition at 10 µM: CHO-K1, test substance 10 μM, read-out: B1R Antagonism, rat [10 μM] % Inhibition
T1 construct: host or cells: CHO K1 cells (Chinese hamster ovary), stably transfected
T1 sequence (P97583 1-337): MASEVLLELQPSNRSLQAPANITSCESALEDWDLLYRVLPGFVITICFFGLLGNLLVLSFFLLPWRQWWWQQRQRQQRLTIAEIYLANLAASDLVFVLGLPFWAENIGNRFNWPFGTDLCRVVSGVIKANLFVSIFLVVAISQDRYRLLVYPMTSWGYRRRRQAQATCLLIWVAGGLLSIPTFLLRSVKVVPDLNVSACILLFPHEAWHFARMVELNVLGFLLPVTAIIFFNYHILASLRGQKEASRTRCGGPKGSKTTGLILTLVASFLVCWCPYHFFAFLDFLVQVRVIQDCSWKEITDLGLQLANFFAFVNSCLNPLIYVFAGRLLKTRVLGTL
Method in brief: (§1)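 Readout: peak Fluo-4 Ca2+ fluorescence, FLIPR. Stable CHO K1 hB1R or rB1R cells; cpd 10 μM, 10 min preincubation, then agonist (hB1R: Lys-Des-Arg9-BK 0.5 nM; rB1R: Des-Arg9-BK 100 nM). Value = % inhibition relative to maximal achievable inhibition.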

human B1R receptor = biological target: T2, human B1R receptor (Homo sapiens, UniProt P46663); test: Functional study on the bradykinin receptor 1 (B1R), FLIPR Ca2+ assay, hB1R cells; assay type: cell-based; conditions: agonist Lys-Des-Arg9-bradykinin 0.5 nM, % inhibition compared with the maximum achievable inhibition; for B1R Antagonism, human [10 μM] % Inhibition: test substance 10 μM, hB1R CHO K1 cells; for inhibition at 10 µM: CHO-K1, test substance 10 μM, read-out: B1R Antagonism, human [10 μM] % Inhibition
T2 construct: host or cells: CHO K1 cells (Chinese hamster ovary), stably transfected
T2 sequence (P46663 1-353): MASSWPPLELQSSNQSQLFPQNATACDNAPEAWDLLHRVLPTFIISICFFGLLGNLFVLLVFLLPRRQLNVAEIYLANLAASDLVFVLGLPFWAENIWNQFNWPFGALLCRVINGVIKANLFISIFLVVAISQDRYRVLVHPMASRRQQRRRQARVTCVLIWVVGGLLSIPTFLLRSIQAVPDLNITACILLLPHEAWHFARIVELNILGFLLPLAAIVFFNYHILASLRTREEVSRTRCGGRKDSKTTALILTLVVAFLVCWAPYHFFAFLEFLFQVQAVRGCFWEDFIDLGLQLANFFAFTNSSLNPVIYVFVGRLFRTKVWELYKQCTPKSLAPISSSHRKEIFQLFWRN
Method in brief: as §1

| SMILES | B1R Antagonism, rat [10 μM] % Inhibition (B1R receptor of the rat) | B1R Antagonism, human [10 μM] % Inhibition (human B1R receptor) | inhibition at 10 µM (B1R receptor of the rat) | inhibition at 10 µM (human B1R receptor) |
| --- | --- | --- | --- | --- |
| CN(C(=O)COCC1CCCCN1S(=O)(=O)c1cccc2ccccc12)C(CN1CCOCC1)c1ccccc1 (stereo not drawn) [Example 47, N-methyl-N-(2-morpholin-4-yl-1-phenyl-ethyl)-2-[1-(naphthyl-1-sulfonyl)-piperidin-2-ylmethoxy]-acetamide] | 48.84% | 68.07% | – | – |
| CCN(CC)CCN(CCN(CC)CC)C(=O)COCC1Cc2ccccc2CN1S(=O)(=O)c1c(C)cc(C)cc1C (stereo not drawn) [Example 48, N,N-bis-(2-diethylamino-ethyl)-2-[2-(2,4,6-trimethyl-phenylsulfonyl)-1,2,3,4-tetra-hydro-isoquinolin-3-ylmethoxy]-acetamide] | – | – | 30.5% | 66.6% |
| O=C(COCC1CCCN1S(=O)(=O)c1c(Cl)cc(Cl)cc1Cl)NCc1ccc(CN2CCOCC2)cc1 (stereo not drawn) [Example 49, N-(4-morpholin-4-ylmethyl-benzyl)-2-[1-(2,4,6-trichloro-phenylsulfonyl)-pyrrolidin-2-ylmethoxy]-acetamide] | – | – | 92.3% | 65.9% |
| Cc1cc(C)c(S(=O)(=O)N2Cc3ccccc3CC2COCC(=O)NCc2cccc(N3CCOCC3)c2)c(C)c1 (stereo not drawn) [Example 50, N-(3-morpholin-4-yl-benzyl)-2-[2-(2,4,6-trimethyl-phenylsulfonyl)-1,2,3,4-tetrahydro-isoquinolin-3-ylmethoxy]-acetamide] | – | – | 50.3% | 65.7% |
| O=C(COCC1Cc2ccccc2CN1S(=O)(=O)c1ccc(Cl)cc1Cl)N1CCCC1CN1CCCCC1 (stereo not drawn) [Example 51, 2-[2-(2,4-dichloro-phenylsulfonyl)-1,2,3,4-tetrahydro-isoquinolin-3-ylmethoxy]-1-(2-piperidin-1-ylmethyl-pyrrolidin-1-yl)-ethanone] | – | – | 87.9% | 65.1% |
| COc1ccc(S(=O)(=O)N2CCCCC2COCC(=O)N2CCC(CCN3CCCCC3)CC2)cc1 (stereo not drawn) [Example 52, 2-((1-(4-methoxyphenylsulfonyl)piperidin-2-yl)methoxy)-1-(4-(2-(piperidin-1-yl)-ethyl)piperidin-1-yl)ethanone] | – | – | 92.8% | 65% |
| COc1cccc(N2CCN(C(=O)COCC3CCCCN3S(=O)(=O)c3ccc(Cl)c(Cl)c3)CC2)c1 (stereo not drawn) [Example 53, 2-[1-(3,4-dichloro-phenylsulfonyl)-piperidin-2-ylmethoxy]-1-[4-(3-methoxy-phenyl)-piperazin-1-yl]-ethanone] | – | – | 0% | 64.8% |
| O=C(COCC1CCCN1S(=O)(=O)c1ccc(Cl)c(Cl)c1)N1CCN(CC2CCCCC2)CC1 (stereo not drawn) [Example 54, 1-(4-cyclohexylmethyl-piperazin-1-yl)-2-[1-(3,4-dichloro-phenylsulfonyl)-pyrrolidin-2-ylmethoxy]-ethanone] | – | – | 0% | 63.8% |
| COc1cc(C)c(S(=O)(=O)N2CCCC2COCC(=O)NCc2ccc(CN3CCOCC3)cc2)c(C)c1 (stereo not drawn) [Example 55, 2-[1-(4-methoxy-2,6-dimethyl-phenylsulfonyl)-pyrrolidin-2-ylmethoxy]-N-(4-morpholin-4-ylmethyl-benzyl)-acetamide] | – | – | 88.8% | 63.2% |
| O=C(COCC1CCCCN1S(=O)(=O)c1ccc(Cl)c(Cl)c1)N1CCN(c2ccccc2)CC1 (stereo not drawn) [Example 56, 2-[1-(3,4-dichloro-phenylsulfonyl)-piperidin-2-ylmethoxy]-1-(4-phenyl-piperazin-1-yl)-ethanone] | – | – | 0% | 62.7% |
| O=C(COCC1CCCCN1S(=O)(=O)c1ccc(Cl)c(Cl)c1)N1CCC(Cc2ccccc2)CC1 (stereo not drawn) [Example 57, 1-(4-benzyl-piperidin-1-yl)-2-[1-(3,4-dichloro-phenylsulfonyl)-piperidin-2-ylmethoxy]-ethanone] | – | – | 0% | 62.4% |
| CN(C)CCCN1CCN(C(=O)COCC2CCCCN2S(=O)(=O)c2cccc(C(F)(F)F)c2)CC1 (stereo not drawn) [Example 58, 1-[4-(3-dimethylamino-propyl)-piperazin-1-yl]-2-[1-(3-trifluoromethyl-phenylsulfonyl)-piperidin-2-ylmethoxy]-ethanone] | – | – | 10.2% | 62.2% |
| O=C(COCC1CCCCN1S(=O)(=O)c1ccc(Cl)c(Cl)c1)N1CCN(c2ccc(F)cc2)CC1 (stereo not drawn) [Example 59, 2-[1-(3,4-dichloro-phenylsulfonyl)-piperidin-2-ylmethoxy]-1-[4-(4-fluoro-phenyl)-piperazin-1-yl]-ethanone] | – | – | 0% | 61.5% |
| COc1cc(C)c(S(=O)(=O)N2CCCC2COCC(=O)NCc2ccc(N3CCCCC3)cc2)c(C)c1 (stereo not drawn) [Example 60, 2-[1-(4-methoxy-2,6-dimethyl-phenylsulfonyl)-pyrrolidin-2-ylmethoxy]-N-(4-piperidin-1-yl-benzyl)-acetamide] | – | – | 109% | 59.9% |
| O=C(COCC1CCCCN1S(=O)(=O)c1cccc2ccccc12)NCc1ccc(CN2CCOCC2)cc1 (stereo not drawn) [Example 61, N-(4-morpholin-4-ylmethyl-benzyl)-2-[1-(naphthyl-1-sulfonyl)-piperidin-2-ylmethoxy]-acetamide] | 30.54% | 59.7% | – | – |
| CN1CCC(N2CCN(C(=O)COCC3CCCN3S(=O)(=O)c3ccc(Cl)c(Cl)c3)CC2)CC1 (stereo not drawn) [Example 62, 2-[1-(3,4-dichloro-phenylsulfonyl)-pyrrolidin-2-ylmethoxy]-1-[4-(1-methyl-piperidin-4-yl)-piperazin-1-yl]-ethanone] | – | – | 34% | 59.6% |
| CN(C)c1ccc(C2CCCCCN2C(=O)COCC2CCCCN2S(=O)(=O)c2cccc3ccccc23)cc1 (stereo not drawn) [Example 63, 1-[2-(4-dimethylamino-phenyl)-azepan-1-yl]-2-[1-(naphthyl-1-sulfonyl)-piperidin-2-ylmethoxy]-ethanone] | 26.41% | 58.57% | – | – |
| O=C(COCC1CCCCN1S(=O)(=O)c1cccc2ccccc12)N1CCCC1CN1CCCCC1 (stereo not drawn) [Example 64, 2-[1-(naphthyl-1-sulfonyl)-piperidin-2-ylmethoxy]-1-(2-piperidin-1-ylmethyl-pyrrolidin-1-yl)-ethanone] | 25.48% | 57.92% | – | – |
| O=C(COCC1Cc2ccccc2CN1S(=O)(=O)c1ccc(Cl)cc1Cl)N1CCC(N2CCOCC2)CC1 (stereo not drawn) [Example 65, 2-((2-(2,4-dichlorophenylsulfonyl)-1,2,3,4-tetrahydroisoquinolin-3-yl)methoxy)-1-(4-morpholinopiperidin-1-yl)ethanone] | – | – | 93.2% | 55.4% |
| CN(C)C1CCN(C(=O)COCCC2CCCCN2S(=O)(=O)c2cccc3ccccc23)C1 (stereo not drawn) [Example 66, 1-(3-dimethylamino-pyrrolidin-1-yl)-2-[1-(naphthyl-1-sulfonyl)-piperidin-2-ylethoxy]-ethanone] | 38.64% | 55.38% | – | – |
| Cc1cc(C)c(S(=O)(=O)N2Cc3ccccc3CC2COCC(=O)N2CCCN(Cc3ccccc3)CC2)c(C)c1 (stereo not drawn) [Example 67, 1-(4-benzyl-[1,4]diazepan-1-yl)-2-[2-(2,4,6-trimethyl-phenylsulfonyl)-1,2,3,4-tetrahydro-isoquinolin-3-ylmethoxy]-ethanone] | – | – | 80.5% | 55% |
| O=C(COCC1CCCCN1S(=O)(=O)c1ccc(Cl)c(Cl)c1)N1CCN(CC2CCCCC2)CC1 (stereo not drawn) [Example 68, 1-(4-cyclohexylmethyl-piperazin-1-yl)-2-[1-(3,4-dichloro-phenylsulfonyl)-piperidin-2-ylmethoxy]-ethanone] | – | – | 0% | 54.1% |
| COc1ccc(S(=O)(=O)N2Cc3ccccc3CC2COCC(=O)N2CCC(CCN3CCCCC3)CC2)cc1 (stereo not drawn) [Example 69] | 82.89% | 53.64% | – | – |
| O=C(COCC1CCCCN1S(=O)(=O)c1ccc(Cl)c(Cl)c1)NCC1CCCN(Cc2ccccc2)C1 (stereo not drawn) [Example 70, N-(1-benzyl-piperidin-3-ylmethyl)-2-[1-(3,4-dichloro-phenylsulfonyl)-piperidin-2-yl-methoxy]-acetamide] | – | – | 42.2% | 53.3% |
